From US10912816B2, “Obesity-related genes and their proteins and uses thereof” (THE TRUSTEES OF COLUMBIA UNIVERSITY IN THE CITY OF NEW YORK, priority 2010, dated 2021)
“Also recorded” adds a separate entry of the source.

How the values were obtained:
[1] = Conditioned taste aversion testing; assay type: in vivo, adult female Wistar rats; conditions: ip injection on test days 1-3; spexin 70 μg/kg, LiCl 63.5 mg/kg body weight (FIG. 29)
Description: After 20 hrs of water deprivation, rats were offered a single bottle containing 0.1% sodium saccharin for 20 min, followed by an ip injection of physiological saline (n=6), 70 μg spexin/kg body weight (n=6), or 63.5 mg LiCl/kg body weight (0.15M LiCl) (n=5) after an additional 20 min. Injections were administered on test days 1-3, with no injection on the final test day. […] Data points represent mean±SEM.
Conditioned taste aversion studies were conducted using adult female Wistar rats according to established protocols [P27-P29]. For training, rats were water but not food deprived for 20 hrs (1800-1400 hrs the following day), then offered a single bottle of water ad libitum for 20 min. Training sessions took place on 2 days of each week, spaced at 3-4 day intervals, to allow recovery of normal food intake and body weight. A total of 7 training sessions were conducted, by which time all animals had learned to drink promptly when fluid was offered. Testing was initiated on the same schedule, with 0.1% sodium saccharin rather than water as the available liquid. On test days 1-3 groups of rats were injected ip with either physiological saline, spexin (70 μg/kg body weight), or LiCl (63.5 mg/kg body weight). All groups experienced their first saccharin exposure and injection on test day 1. […]

[2] = Body weight and 24 hour feeding behavior in DIO rats (BioDaq Food Intake Monitoring System); assay type: in vivo; conditions: DIO rats on treatment
Description: Obese adult female Wistar rats (n=4/group) received single daily injections (sc) of vehicle or Spexin (35 μg/kg BW). Body weights and food intake were measured daily. Average daily food intake (FIG. 22A) and body weight (FIG. 22B) for each group was recorded for each 24 hr period. 24 hr food intake was reduced in the Spexin treated animals (dark circles) by Day 3. […] This effect persisted well beyond the immediate treatment period, and was apparent out to Day 7.
A more detailed analysis of hourly feeding behaviors, including 1) number of “meals” during a 24 hr light/dark cycle, and 2) meal duration and incidence were continuously recorded by a BioDaq Food Intake Monitoring System (FIG. 23). Pre-treatment baselines (FIG. 23A), on-treatment responses (FIG. 23B), early (FIG. 23C) and late (FIG. 23D) “wash-out” periods are presented. […]
Obese (DIO) adult female Wistar rats (n=4/group) received single daily injections (sc) of vehicle or Spexin (35 μg/kg BW). Individual body weights and food intake were measured and recorded daily, and the average food intake and body weight for each group was recorded for each 24 hour period. For a more detailed analysis of hourly feeding behaviors, number of feeding events or “meals” during a 24 hour light/dark cycle, and frequency and durations of individual meals were continuously recorded via a BioDaq Food Intake Monitoring System (New Brunswick, N.J.).

| SMILES | total amount of 0.1% saccharin solution consumed vs saline [1] | toxicity, nausea or taste aversion behaviors [2] | toxicity, nausea or taste aversion behaviors ([2]; listed as spexin) |
| --- | --- | --- | --- |
| [Cl-].[Li+] [LiCl, reference compound] | significantly less | – | – |
| CSCC[C@H](NC(=O)[C@H](C)NC(=O)[C@H](CCC(N)=O)NC(=O)[C@@H]1CCCN1C(=O)[C@@H](NC(=O)[C@H](Cc1c[nH]c2ccccc12)NC(=O)[C@@H](N)CC(N)=O)[C@@H](C)O)C(=O)N[C@@H](CC(C)C)C(=O)N[C@@H](Cc1ccc(O)cc1)C(=O)N[C@@H](CC(C)C)C(=O)N[C@@H](CCCCN)C(=O)NCC(=O)N[C@@H](C)C(=O)N[C@@H](CCC(N)=O)C(N)=O [Spexin, NWTPQAMLYLKGAQ-amide] | No significant differences; also recorded: no signs of taste aversion were detected | No indications of nausea or taste aversion behaviors; also recorded: No overt signs of Spexin-induced toxic effects | did not exhibit overt toxicity or nausea |
